Active and inactive are the calls of the source. How the calls were made is not given here.
Tested on: CCRIS mutagenicity, Ames/micronucleus/aberration tests
Assay: CCRIS mutagenicity studies
[1] = Test System: AMES SALMONELLA TYPHIMURIUM, Strain/Indicator: TA98, Metabolic Activation: NONE, Method: PREINCUBATION
[2] = Test System: AMES SALMONELLA TYPHIMURIUM, Strain/Indicator: TA100, Metabolic Activation: NONE, Method: PREINCUBATION
[3] = Test System: AMES SALMONELLA TYPHIMURIUM, Strain/Indicator: TA100, Metabolic Activation: RAT, LIVER, S-9, AROCLOR 1254, Method: PREINCUBATION
[4] = Test System: AMES SALMONELLA TYPHIMURIUM, Strain/Indicator: TA1535, Metabolic Activation: NONE, Method: STANDARD PLATE
[5] = Test System: AMES SALMONELLA TYPHIMURIUM, Strain/Indicator: TA1535, Metabolic Activation: RAT, LIVER, S-9, AROCLOR 1254, Method: STANDARD PLATE
[6] = Test System: AMES SALMONELLA TYPHIMURIUM, Strain/Indicator: TA1537, Metabolic Activation: NONE, Method: STANDARD PLATE
[7] = Test System: AMES SALMONELLA TYPHIMURIUM, Strain/Indicator: TA1537, Metabolic Activation: RAT, LIVER, S-9, AROCLOR 1254, Method: STANDARD PLATE
[8] = Test System: AMES SALMONELLA TYPHIMURIUM, Strain/Indicator: TA1538, Metabolic Activation: NONE, Method: STANDARD PLATE

Cc1cc(/C=C/c2ccc3cc(N(C)C)ccc3[n+]2C)c(C)n1-c1ccccc1
mutagenic call (Test System: AMES SALMONELLA TYPHIMURIUM, Strain/Indicator: TA98, Metabolic Activation: HUMAN, LIVER, S-9, Method: STANDARD PLATE): active; positive | mutagenic call [1]: active; positive | mutagenic call (Test System: AMES SALMONELLA TYPHIMURIUM, Strain/Indicator: TA98, Metabolic Activation: RAT, LIVER, S-9, AROCLOR 1254, Method: PREINCUBATION): active; positive | mutagenic call (Test System: AMES SALMONELLA TYPHIMURIUM, Strain/Indicator: TA100, Metabolic Activation: HUMAN, LIVER, S-9, Method: STANDARD PLATE): active; positive | mutagenic call [2]: active; positive | mutagenic call [3]: active; positive | mutagenic call [4]: inactive; negative | mutagenic call [5]: inactive; negative | mutagenic call [6]: inactive; negative | mutagenic call [7]: inactive; negative | mutagenic call [8]: inactive; negative | mutagenic call (Test System: AMES SALMONELLA TYPHIMURIUM, Strain/Indicator: UTH8413, Metabolic Activation: NONE, Method: PREINCUBATION): inactive; negative | mutagenic call (Test System: AMES SALMONELLA TYPHIMURIUM, Strain/Indicator: UTH8414, Metabolic Activation: NONE, Method: PREINCUBATION): active; positive | mutagenic call (Test System: AMES SALMONELLA TYPHIMURIUM, Strain/Indicator: UTH8414, Metabolic Activation: RAT, LIVER, S-9, AROCLOR 1254, Method: PREINCUBATION): active; positive

O=[N+]([O-])c1ccc2c(c1)CCc1cc3c(cc1-2)CCc1ccccc1-3
mutagenic call (Test System: AMES SALMONELLA TYPHIMURIUM, Strain/Indicator: TA98(1,8-DNP6), Metabolic Activation: NONE): active; positive | mutagenic call (Test System: AMES SALMONELLA TYPHIMURIUM, Strain/Indicator: TA98(1,8-DNP6), Metabolic Activation: RAT, LIVER, S-9, AROCLOR 1254): active; positive | mutagenic call (Test System: AMES SALMONELLA TYPHIMURIUM, Strain/Indicator: TA98(NR), Metabolic Activation: NONE): active; positive | mutagenic call (Test System: AMES SALMONELLA TYPHIMURIUM, Strain/Indicator: TA98(NR), Metabolic Activation: RAT, LIVER, S-9, AROCLOR 1254): active; positive | mutagenic call (Test System: AMES SALMONELLA TYPHIMURIUM, Strain/Indicator: TA98, Metabolic Activation: NONE): active; positive | mutagenic call (Test System: AMES SALMONELLA TYPHIMURIUM, Strain/Indicator: TA98, Metabolic Activation: RAT, LIVER, S-9, AROCLOR 1254): active; positive | mutagenic call (Test System: AMES SALMONELLA TYPHIMURIUM, Strain/Indicator: TA100(NR), Metabolic Activation: NONE): inactive; negative | mutagenic call (Test System: AMES SALMONELLA TYPHIMURIUM, Strain/Indicator: TA100(NR), Metabolic Activation: RAT, LIVER, S-9, AROCLOR 1254): active; positive | mutagenic call (Test System: AMES SALMONELLA TYPHIMURIUM, Strain/Indicator: TA100, Metabolic Activation: NONE): active; positive | mutagenic call (Test System: AMES SALMONELLA TYPHIMURIUM, Strain/Indicator: TA100, Metabolic Activation: RAT, LIVER, S-9, AROCLOR 1254): active; positive | mutagenic call (Test System: AMES SALMONELLA TYPHIMURIUM, Strain/Indicator: TA104, Metabolic Activation: NONE): active; positive | mutagenic call (Test System: AMES SALMONELLA TYPHIMURIUM, Strain/Indicator: TA104, Metabolic Activation: RAT, LIVER, S-9, AROCLOR 1254): active; positive

CC/C=C/C=O
mutagenic call [2]: inactive; negative | mutagenic call (Test System: AMES SALMONELLA TYPHIMURIUM, Strain/Indicator: TA100, Metabolic Activation: NONE, Method: PREINCUBATION (THREEFOLD CELL DENSITY)): active; positive | mutagenic call [3]: active; positive | mutagenic call (Test System: AMES SALMONELLA TYPHIMURIUM, Strain/Indicator: TA100, Metabolic Activation: RAT, LIVER, S-9, AROCLOR 1254, Method: PREINCUBATION (THREEFOLD CELL DENSITY)): active; positive | mutagenic call (Test System: CHINESE HAMSTER V-79, Strain/Indicator: V-79/6-THIOGUANINE, Metabolic Activation: NONE, Method: STANDARD PLATE): active; positive | mutagenic call (Test System: CHINESE HAMSTER V-79, Strain/Indicator: V-79/OUABAIN, Metabolic Activation: NONE, Method: STANDARD PLATE): inactive; negative

CCCCCN(CCCCO)N=O
mutagenic call (Test System: AMES SALMONELLA TYPHIMURIUM, Strain/Indicator: TA1535, Metabolic Activation: RAT, LIVER, S-9, KANECHLOR 500 OR PHENOBARBITAL, Method: LIQUID SUSPENSION): active; positive

NNc1nncc2ncccc12
mutagenic call [1]: active; positive | mutagenic call (Test System: AMES SALMONELLA TYPHIMURIUM, Strain/Indicator: TA98, Metabolic Activation: RAT, LIVER, S-9, PCB, Method: PREINCUBATION): active; positive | mutagenic call [2]: active; positive | mutagenic call (Test System: AMES SALMONELLA TYPHIMURIUM, Strain/Indicator: TA100, Metabolic Activation: RAT, LIVER, S-9, PCB, Method: PREINCUBATION): active; positive

C/C=C\c1ccc(OC)cc1OC
mutagenic call (Test System: AMES SALMONELLA TYPHIMURIUM, Strain/Indicator: TA97, Metabolic Activation: NONE, Method: STANDARD PLATE): inactive; negative | mutagenic call (Test System: AMES SALMONELLA TYPHIMURIUM, Strain/Indicator: TA97, Metabolic Activation: RAT, LIVER, S-9, AROCLOR 1254, Method: STANDARD PLATE): inactive; negative | mutagenic call (Test System: AMES SALMONELLA TYPHIMURIUM, Strain/Indicator: TA98, Metabolic Activation: NONE, Method: STANDARD PLATE): inactive; negative | mutagenic call (Test System: AMES SALMONELLA TYPHIMURIUM, Strain/Indicator: TA98, Metabolic Activation: RAT, LIVER, S-9, AROCLOR 1254, Method: STANDARD PLATE): inactive; negative | mutagenic call (Test System: AMES SALMONELLA TYPHIMURIUM, Strain/Indicator: TA100, Metabolic Activation: NONE, Method: STANDARD PLATE): inactive; negative | mutagenic call (Test System: AMES SALMONELLA TYPHIMURIUM, Strain/Indicator: TA100, Metabolic Activation: RAT, LIVER, S-9, AROCLOR 1254, Method: STANDARD PLATE): inactive; negative | mutagenic call [4]: inactive; negative | mutagenic call [5]: inactive; negative | mutagenic call [6]: inactive; negative | mutagenic call [7]: inactive; negative | mutagenic call [8]: inactive; negative | mutagenic call (Test System: AMES SALMONELLA TYPHIMURIUM, Strain/Indicator: TA1538, Metabolic Activation: RAT, LIVER, S-9, AROCLOR 1254, Method: STANDARD PLATE): inactive; negative
